Key:
[1] = tested on: established type II collagen-induced arthritis (CIA) in DBA/1 mice; assay: 14-day mouse established type II collagen-induced arthritis (CIA), PO QD (Example 10); assay type: in vivo; settings: for arthritis scores measured daily vs vehicle controls / disease-induced body weight loss (percent change from baseline) vs vehicle controls: p<0.05 on the days printed; for AUC (All Paws) - Corrected for Initial Score / Change in Body Weight (g) / Histopathology Summed Score Knees / Histopathology Summed Score Paws / Histopathology Summed Score Six-Joints / Paw Score AUC (All Paws): mean(SE); for spleen weights compared to vehicle controls: all dose groups PO QD
Protocol: Prior to dosing, the candidate anti-inflammatory agents were reconstituted either by vortexing or stirring. The candidate anti-inflammatory agents were administered to the DBA/1 mice daily (QD) by the oral (PO) route.
Immunization with heterologous type II collagen (CII) induces arthritis in mice of the DBA/1 strain, which is genetically susceptible to this disease. To develop an experimental model of autoimmunity more adequate for the study of human rheumatoid arthritis (RA), male DBA/1 mice were injected intradermally (ID) with bovine type II collagen to induce arthritis as reported by Trentham et al (Trentham D E, Townes A S, Kang A H Autoimmunity to type II collagen: an experimental model of arthritis. J. Exper. Med. 1977, 146:857-868) and Bendele A (Bendele A, Animal models of rheumatoid arthritis. J. Musculoskelet. Neuronal Interact. 2001, 1(4):377-85). Male DBA/1 mice (n=114) that were 6-7 weeks old and weighed approximately 18-27 grams (mean 22 g) at enrollment (arthritis day 1) were obtained from Taconic Farms, Inc. The male DBA/1 mice were at least 6 weeks old at time of first immunization and were housed 3-5/cage in shoe-box polycarbonate cages with wire tops, wood chip bedding, and suspended food and water bottles. These animals were identified by a distinct number of ink marks at the base of the tail delineating animal number. After enrollment, all cages were labeled with protocol number, group number, and animal numbers.
The male DBA/1 (n=10/group for arthritis) were anaesthetized with Isoflurane, shaved at the base of the tail, and injected intradermally with 150 μL of Freund's Complete Adjuvant (Difco, Detroit, Mich.) containing bovine type II collagen (BBP, batch #7) (1 mg/ml) at the base of the tail on day 0 and again on day 21. […] Randomization was done after swelling was obviously established in at least one paw (score of 1) and attempts were made to ensure approximately equal mean scores of 0.5-1 across groups at the time of enrollment. […] The male DBA/1 mice were terminated on arthritis day 14 (3 hours post-dose).
Efficacy evaluation of the administered anti-inflammatory agents was based on animal body weights, clinical arthritis scores, arthritis scores expressed as area under the curve (AUC), and histopathology on fore paws, hind paws, and knees. Histopathology results were expressed as 4 paws, knees only, or 6 joints (knees included). Day 13 was used as the endpoint for analysis of body weight change since the male DBA/1 mice were fasted overnight prior to necropsy on day 14.

[2] = tested on: BCR signaling through BTK; assay: Anti-IgM induced CD86 and CD69 on splenocyte B cells of CIA mice; assay type: in vivo, mouse; settings: splenocytes 3 hr after last dosing on day 14
Protocol: (§1) FIG. 45 illustrates changes in a functional measure of BCR signalling through the CD86 marker. Mouse splenocytes were isolated from spleens from mice that were part of the mouse CIA study semi-therapeutic protocol, 3 hr after the last dosing on day 14 of the treatment and cryopreserved. After thawing, inhibition of anti-IgM-induced PD markers CD86 and CD69 on mouse splenocyte B cells were measured. Error bars represent the standard deviation for the 3 sets of splenocytes analyzed.
as §1, with “FIG. 46” for “FIG. 45”, “the CD69” for “the CD86”
Inhibition of the BCR signaling through BTK was evaluated by ex vivo stimulation of splenocytes using IgM and evaluation of CD86 and CD69 as functional responses of BCR stimulation.

MDA-MB-231 tumor cells = assay: Osteolytic bone lesions after intratibial MDA-MB-231 tumor inoculation in nude rats; assay type: in vivo, rat; design: mean visual lysis score: scale not given here; mean left tibial density: unit not given here; settings: zoledronate group (Group 2)
Protocol: FIG. 40A, FIG. 40B, FIG. 40C, FIG. 40D, FIG. 40E, FIG. 40F, and FIG. 40G illustrate the bone density in hind limbs of nude rats (n=6 per group) implanted with intratibial MDA-MB231 tumor […] and treated for up to 41 days with vehicle control, zoledronate (active control) or varying doses of Formula (II). Oral gavage administration of Formula (II) was scheduled as 3 days of initial QD dosing, followed by 30 days of BID dosing at the following dose levels: 3/3, 30/30, and 180/90 mg/kg/day. An untreated group of rats, without tibial implants (n=3) represents bone density of concurrently obtained normal rat tibial images. Statistical significance was determined by two-way ANOVA-Dunnett: ns=not significant, *=P<0.05, **=P<0.01, ***=P<0.001, versus Group 1.
Rats were inoculated with MDA-MB-231 tumor cells on Day 1, baseline radiographs were taken on Day 2, and treatment with Formula (II) began on Day 8. Radiographs were taken on Days 10, 17, 24, 31, 38, and 41. Anti-osteolytic activities were determined from differences in bone density and visual lysis scores between the drug-treated and vehicle-treated groups on each observation day, and also from changes in bone density and visual lysis scores in tumor-inoculated left tibias at baseline (Day 2) compared to Days 10, 17, 24,31, 38, and 41.
Radiographs were blinded for both analyses. […] Visual osteolysis was not detected in any rat in the nave group. The 4% increase in mean bone density from baseline to study end presumably reflected normal growth in these rats.

[3] = 5 mg/kg PO QD, prophylactic paws
[4] = 5 mg/kg PO QD, prophylactic paws only
[5] = 5 mg/kg PO QD, therapeutic paws only

Q: Which “six-joint histopathology, reduction of summed scores vs vehicle controls” value (“six-joint histopathology, reduction” below) ([1]; 5 mg/kg PO QD) does the source give for `CC#CC(=O)N1CCOC[C@H]1c1nc(-c2ccc(C(=O)Nc3ccccn3)cc2)c2c(N)nccn12` [(R)-4-(8-amino-3-(4-(but-2-ynoyl)morpholin-3-yl)imidazo[1,5-a]pyrazin-1-yl)-N-(pyridin-2-yl)benzamide] here?
A: 75%

Q: And the “Clinical arthritis scores AUC, reduction vs vehicle controls” value ([1]; 5 mg/kg PO QD, all paws)?
A: 74%

Q: What about the “Clinical arthritis scores AUC, reduction when corrected for initial enrollment score” value ([1]; 5 mg/kg PO QD, all paws) of the same compound?
A: 90%

Q: What about the “arthritis scores measured daily vs vehicle controls” value ([1]; 5 mg/kg PO QD, all paws) of the same compound?
A: significantly reduced toward normal

Q: What about the “AUC (All Paws) - Corrected for Initial Score” value (“AUC (All Paws) - Corrected” for short) ([1]; 5 mg/kg PO QD) of the same compound?
A: *3.43(2.22)

Q: And the “Change in Body Weight (g)” value ([1]; 5 mg/kg PO QD)?
A: −0.04(0.92) g

Q: And the “Histopathology Summed Score Knees” value ([1]; 5 mg/kg PO QD)?
A: *2.65(0.79)

Q: And the “Histopathology Summed Score Paws” value ([1]; 5 mg/kg PO QD)?
A: 4.24(1.07)

Q: And the “Histopathology Summed Score Six-Joints” value ([1]; 5 mg/kg PO QD)?
A: *3.71(0.87)

Q: And the “Paw Score AUC (All Paws)” value ([1]; 5 mg/kg PO QD)?
A: *10.58(2.95)

Q: And the “disease-induced body weight loss (percent change from baseline) vs vehicle controls” value ([1]; 5 mg/kg PO QD)?
A: significantly inhibited toward normal

Q: What about the “daily arthritis scores vs vehicle controls” value [1, 3] of the same compound?
A: significantly reduced toward normal

Q: What about the “Clinical arthritis scores AUC, reduction vs vehicle controls” value [1, 4] of the same compound?
A: 95%

Q: What about the “spleen weights compared to vehicle controls” value [1] of the same compound?
A: not significantly affected

Q: What about the “BCR-mediated signaling (anti-IgM induced CD86 and CD69)” value [2] of the same compound?
A: dose-responsive decreases in BCR-mediated signaling

Q: For `CC#CC(=O)N1CC[C@@H](n2c(=O)n(-c3ccc(Oc4ccccc4)cc3)c3c(N)ncnc32)C1` [Formula (XXI), 6-amino-9-[(3R)-1-(2-butynoyl)-3-pyrrolidinyl]-7-(4-phenoxyphenyl)-7,9-dihydro-8H-purin-8-one], which “six-joint histopathology, reduction” value ([1]; 1 mg/kg PO QD) is on record?
A: 73%

Q: What about the “total body weight loss from enrollment to study termination” value ([1]; 1 mg/kg PO QD) of the same compound?
A: significantly inhibited

Q: What about the “Clinical arthritis scores AUC, reduction vs vehicle controls” value ([1]; 1 mg/kg PO QD, all paws) of the same compound?
A: 65%

Q: What about the “Clinical arthritis scores AUC, reduction when corrected for initial enrollment score” value ([1]; 1 mg/kg PO QD, all paws) of the same compound?
A: 79%

Q: What about the “arthritis scores measured daily vs vehicle controls” value ([1]; 1 mg/kg PO QD, all paws) of the same compound?
A: significantly reduced toward normal

Q: What about the “AUC (All Paws) - Corrected” value ([1]; 1 mg/kg PO QD) of the same compound?
A: 7.28(3.26)

Q: What about the “Change in Body Weight (g)” value ([1]; 1 mg/kg PO QD) of the same compound?
A: *0.33(0.82) g

Q: And the “Histopathology Summed Score Knees” value ([1]; 1 mg/kg PO QD)?
A: *3.45(1.22)

Q: What about the “Histopathology Summed Score Paws” value ([1]; 1 mg/kg PO QD) of the same compound?
A: *4.14(1.27)

Q: What about the “Histopathology Summed Score Six-Joints” value ([1]; 1 mg/kg PO QD) of the same compound?
A: *3.91(1.13)

Q: What about the “Paw Score AUC (All Paws)” value ([1]; 1 mg/kg PO QD) of the same compound?
A: *14.43(4.11)

Q: And the “disease-induced body weight loss (percent change from baseline) vs vehicle controls” value ([1]; 1 mg/kg PO QD)?
A: significantly inhibited toward normal

Q: What about the “daily arthritis scores vs vehicle controls” value ([1]; 1 mg/kg PO QD, prophylactic paws) of the same compound?
A: significantly reduced toward normal

Q: What about the “Clinical arthritis scores AUC, reduction vs vehicle controls” value ([1]; 1 mg/kg PO QD, prophylactic paws only) of the same compound?
A: 99%

Q: What about the “six-joint histopathology, reduction” value ([1]; 5 mg/kg PO QD) of the same compound?
A: 85%

Q: What about the “total body weight loss from enrollment to study termination” value ([1]; 5 mg/kg PO QD) of the same compound?
A: significantly inhibited

Q: And the “Clinical arthritis scores AUC, reduction vs vehicle controls” value ([1]; 5 mg/kg PO QD, all paws)?
A: 86%

Q: And the “Clinical arthritis scores AUC, reduction when corrected for initial enrollment score” value ([1]; 5 mg/kg PO QD, all paws)?
A: 104%

Q: What about the “arthritis scores measured daily vs vehicle controls” value ([1]; 5 mg/kg PO QD, all paws) of the same compound?
A: significantly reduced toward normal

Q: What about the “AUC (All Paws) - Corrected” value ([1]; 5 mg/kg PO QD) of the same compound?
A: *−1.33(1.48)

Q: And the “Change in Body Weight (g)” value ([1]; 5 mg/kg PO QD)?
A: *0.89(0.71) g

Q: What about the “Histopathology Summed Score Knees” value ([1]; 5 mg/kg PO QD) of the same compound?
A: *3.48(1.17)

Q: And the “Histopathology Summed Score Paws” value ([1]; 5 mg/kg PO QD)?
A: *1.46(0.47)

Q: What about the “Histopathology Summed Score Six-Joints” value ([1]; 5 mg/kg PO QD) of the same compound?
A: *2.13(0.66)

Q: And the “Paw Score AUC (All Paws)” value ([1]; 5 mg/kg PO QD)?
A: *5.83(1.53)

Q: And the “disease-induced body weight loss (percent change from baseline) vs vehicle controls” value ([1]; 5 mg/kg PO QD)?
A: significantly inhibited toward normal

Q: What about the “daily arthritis scores vs vehicle controls” value [1, 3] of the same compound?
A: significantly reduced toward normal

Q: And the “Clinical arthritis scores AUC, reduction vs vehicle controls” value [1, 4]?
A: 100%

Q: What about the “daily arthritis scores vs vehicle controls” value ([1]; 5 mg/kg PO QD, therapeutic paws) of the same compound?
A: significantly reduced toward normal

Q: What about the “Clinical arthritis scores AUC, reduction vs vehicle controls” value [1, 5] of the same compound?
A: 66%

Q: And the “Clinical arthritis scores AUC, reduction when corrected for initial enrollment score” value [1, 5]?
A: 113%

Q: What about the “spleen weights compared to vehicle controls” value [1] of the same compound?
A: not significantly affected

Q: And the “BCR-mediated signaling (anti-IgM induced CD86 and CD69)” value [2]?
A: dose-responsive decreases in BCR-mediated signaling

Q: Which “mean left tibial density” value (MDA-MB-231 tumor cells; Day 2 baseline) does the source give for `O=P(O)(O)C(O)(Cn1ccnc1)P(=O)(O)O` [zoledronate, reference compound] here?
A: 200.0±1.6

Q: And the “increase in mean left tibial density” value (MDA-MB-231 tumor cells; Day 2 to Days 31 and 41)?
A: 4-6%

Q: And the “mean left tibial density” value (MDA-MB-231 tumor cells; Day 31)?
A: 207.8±1.6

Q: And the “mean left tibial density” value (MDA-MB-231 tumor cells; Day 41)?
A: 211.2±1.6

Q: And the “mean visual lysis score” value (MDA-MB-231 tumor cells; Days 31 and 41 each)?
A: 0.7

Reference: patent US20170143712A1, “Methods of Treating Cancers, Immune and Autoimmune Diseases, and Inflammatory Diseases Based on BTK Occupancy and BTK Resynthesis Rate” (Acerta Pharma B.V., priority 2014, published 2017)
